Assay results taken from patent publication US20030113833A1, “Device for measuring extracellular potential, method of measuring extracellular potential by using the same and apparatus for quickly screening drug provided therewith” (priority 2001, published 2003).

Experiments:
Type in all cases: cell-based
[1] = system: Neurons prepared from the cerebral cortex of gestation day 17 SD rat embryos
[2] = system: ion channels of a Lymnaea Stagnalis neuron; assay: Extracellular recording, average of standard deviations of the electrical signal (Example 3); settings: 0, 0.1, 0.3, 1, 3, 10, 30 and 100 μM in artificial cerebrospinal fluid; 10 seconds of data
Procedure: The apparatus having the configuration shown in FIG. 13 was used to measure an action of a neuron to the chemical substance Carbachol, where the neuron was prepared from Lymnaea Stagnalis. Carbachol is a chemical substance known as an analog of the neurotransmitter Acetylcholine. Carbachol (manufactured by Sigma) was dissolved in artificial cerebrospinal fluid to concentrations of 0, 0.1, 0.3, 1, 3, 10, 30 and 100 μM. The solutions having these concentrations were used to measure an electrical signal emitted by the neuron. For each Carbachol concentration, time-series data for 10 seconds was obtained from the measurement section (signal source) 101 comprising the sensor substrate, and was sampled at intervals of 100 miliseconds, and the standard deviation of the sampling data was calculated. The average of the standard deviation was plotted in FIG. 17.

[3] = system: ion channels of a Lymnaea Stagnalis neuron; assay: Extracellular recording, normal distribution of standard deviations before and after application (Example 4); settings: after applying 50 μM; 0.478 before the application
Text: FIG. 14 is a conceptual diagram showing a configuration of an apparatus for detecting an action of a subject chemical substance on a biological sample according to the present invention. The apparatus is the same as the apparatus of FIG. 13, except that a normal distribution approximation section 103, an average/half-width calculation section 106 and an activity categorization section 109 are employed in place of the average calculation section 105 and the activity calculation section 108. Communications between each section are indicated by a dashed line or a solid line in FIG. 13. […] Note that similar to the apparatus of FIG. 13, the unit standard deviation calculation section 102, the normal distribution approximation section 103, the average/half-width calculation section 106 and the activity categorization section 109 may be representatively software programs which are recorded in a hard disk of a computer. […] Before and after 50 μM-concentration Carbachol was applied to a Lymnaea Stagnalis neuron, signals were obtained from the measurement section (signal source) 101, and the standard deviation of the signals was calculated in a manner similar to that of Example 1. […]

ω-conotoxin GVIA [Ca antagonist]
frequency at which the noise has a maximal value [1]: about 4 Hz | noise intensity in the absence of the Ca antagonist relative to that in its presence [1]: about 1.5 times

C[N+](C)(C)CCOC(N)=O [Carbachol]
average of the standard deviation every 100 miliseconds versus concentration [2]: the greater the Carbachol concentration, the greater the average of the standard deviation every 100 miliseconds | average of the normal distribution of standard deviation values every 5 miliseconds [3]: 0.703
